Structures can show the parent of a compound that is named as a salt.
Assays:
[1] = tested on: human umbilical vein endothelial cells (HUVEC); test: Nitric oxide production (nitrite+nitrate) in NAS-treated HUVEC; format: cell-based; conditions: for NO production (nitrite+nitrate): 5-22 hours treatment; for effect (response) relative to that of free BH4: 5 to 22 hours exposure
Description: Cultured human umbilical vein endothelial cells (HUVEC) were pretreated with 3 mM N-acetylserotonin (NAS), an inhibitor of the enzyme sepiapterin reductase. Inhibition of this pathway typically results in loss of endogenous BH4, depressing the endogenous eNOS activity far below normal and provides an assay to test for restoration of eNOS activity.
Thus, subconfluent HUVECs were seeded in a 24-well plate and grown overnight in EGM2 medium (full growth medium). The next morning, fresh medium was added to the cells (300 μL/well), 3 mM N-acetylserotonin (NAS), an inhibitor of the enzyme sepiapterin reductase (a member of the synthesis pathway for endogenous BH4) was added to the cells to decrease the endogenous BH4 levels. After an incubation of 1.5 hours, 50, 100, or […] BH4 or compound of Example 5, Example 6, Example 7, or Example 9 were added to the cells. The cells were allowed to react with the BH4 or the compound of Example 5, Example 7, or Example 9 for 5-22 hours. The production of NO was then measured as changes in total (nitrite+nitrate) by the Griess reaction subsequent to nitrate reductase treatment. 90 μL of reaction mixture (25 mM Tris-HCL, pH7.4, 1 μM FAD, 1 μM FMN, 100 μM L-Arginin 2.5 mM CaCl2, 1 mM NADPH, 0.04 mg/ml Calmodulin) was mixed with 5 μl of eNOS (15 units/ml) and 5 μl of BH4 or BH4 analogs (1, 10, 100 μM), followed by incubation in a 37° C. water bath for 90 minutes. Then 100 μl of water and 20 μl of the nitrite fluorescent probe DAN (2,3-diaminonaphthalene, 316 μM) were added to each reaction and incubated at room temperature for 10 minutes. The dye DAN reacts with nitrite to yield the fluorescent product naphthotriazole. The reaction was then stopped by adding 10 μl of NaOH (2.8 M), and the fluorescence of the samples was read using excitation frequency 375 nm and emission frequency 415 nm. The percentage of nitrite+nitrate with BH4 or compound of Example 5, Example 7, or Example 9 is shown in FIG. 17 (after 5 hours); FIG. 18 (after 17 hours); and FIG. 19 (after 22 hours). The results for Example 6 are shown in FIG. 20 (after 5 hours) and FIG. 21 (after 20 hours).

[2] = Stability in simulated gastric fluid; format: in vitro ADME; conditions: over a 60 minute period, compound remaining
Description: (§1) The stability of various compounds as disclosed herein was tested in human and rat and in simulated gastric fluid. Each compound was tested over an hour period for concentration of the compound remaining at each time point. The results are shown in FIGS. 3 (human plasma stability), 4 (rat plasma stability), and 5 (simulated gastric fluid stability) for the compounds of Example 2, 3, 4, and 20.

Stability in rat plasma = format: in vitro ADME; conditions: over a 60 minute period, compound remaining
Description: as §1

[3] = Stability in human plasma; format: in vitro ADME; conditions: over a 60 minute period, compound remaining
Description: as §1

eNOS = eNOS (Homo sapiens, UniProt P29474); test: Cell-free eNOS activity assay reconstituted from purified components; format: biochemical; conditions: 1, 10, 100 μM, 90 minutes at 37° C., nitrite by DAN fluorescence
Description: Also tested was the effect of BH4 analogs compared to free BH4 on stimulation of eNOS activity in a cell-free assay system reconstituted from purified components. 90 μL of reaction mixture (25 mM Tris-HCL, pH7.4, 1 μM FAD, 1 μM FMN, 100 μM L-Arginine, 2.5 mM CaCl2, 1 mM NADPH, 0.04 mg/ml Calmodulin) was mixed with 5 μl of eNOS (15 units/ml) and 5 μl of BH4 or BH4 analogs (1, 10, 100 μM), followed by incubation in a 37° C. water bath for 90 minutes. Then 100 μl of water and 20 μl of the nitrite fluorescent probe DAN (2,3-diaminonaphthalene, 316 μM) were added to each reaction and incubated at room temperature for 10 minutes. The dye DAN reacts with nitrite to yield the fluorescent product naphthotriazole. The reaction was then stopped by adding 10 μl of NaOH (2.8 M), and the fluorescence of the samples was read using excitation frequency 375 nm and emission frequency 415 nm.

[4] = tested on: Spontaneously Hypertensive rats (SHR); test: Anti-hypertensive effect, tail-cuff systolic blood pressure in SHR; format: in vivo, rat
Description: This study was to determine if the BH4 analogs have a similar hypotensive effect and to determine the steady state pharmacokinetics (PK) profiles of plasma BH4 concentrations.
Male Wistar-Kyoto (WKY) rats and SHR rats (Elevage Janvier, France, 7 weeks old) were housed seven days prior to the beginning of experiments with free access to standard chow and water and maintained on an inversed 12 h dark/light cycle (10:00/22:00). After a one week acclimation period, the animals were trained to the tail-cuff system during one week (3 sessions). The following week, two baseline measurements of blood pressure were performed.
The rats (10 weeks old) then received respective treatments of water, vehicle, 2, 10, or 30 mg/kg/day of BH4 analog (Example 5, Val-BH4) or 100 mg/kg/day BH4 by oral gavage (8 mL/kg, dissolved in 100 μM ascorbic acid) performed once a day during 21 days of treatment. The doses of BH4 analog were prepared as mg/kg equivalents of BH4 (calculated using BH4 and BH4 analog 2HCl molecular weights). Body weight was monitored 3 times per week and the most recent body weight was used to adjust drug and vehicle daily intake. Seven experimental groups of rats were evaluated: Group 1—normotensive WKY rats and water gavage; Group 2—hypertensive SHR rats and water gavage; Group 3—hypertensive SHR rats and vehicle gavage; Group 4—hypertensive SHR rats and BH4 100 mg/kg/day gavage; Group 5—hypertensive SHR rats and BH4 analog 2 mg/kg/day gavage; Group 6—hypertensive SHR rats and BH4 analog 10 mg/kg/day gavage; Group 7—hypertensive SHR rats and 30 mg/kg/day BH4 analog gavage. To account for animal loss or animal disqualification during experimental handling, 10 rats were used in each group, with the expectation to obtain interpretable results for at least 8. Systolic blood pressure (SBP) and heart rate (HR) were measured twice weekly during the 3-week treatment period.
Systolic blood pressure (SBP) and heart rate (HR) were measured using the tail-cuff method, twice before the beginning of the treatment and twice weekly during the 3 week treatment period (6 measurements during the treatment period). Rats were placed in a plastic restraint and warmed to […]. A pneumatic pulse sensor was attached to the tail. After cuff inflation, SBP was measured and HR was determined by counting pulse numbers per minute. Data for each rat was taken an average of at least 4 stable readings. At least 10 cuff inflations were performed for each BP measurement.

[5] = Pharmacokinetics and bioavailability, single intravenous or oral doses, partial Latin square crossover; format: in vivo, male cynomolgus monkeys; conditions: oral 40 mg/kg, n=6
Description: This study was to determine the pharmacokinetics and relative bioavailability of BH4 when given as parent BH4 or an analog of BH4 to male cynomolgus monkeys as single intravenous or oral doses in a partial Latin square crossover design.
Six, male, non-naïve cynomolgus monkeys were fasted overnight prior to dosing through approximately 4 hours postdose. Individual doses were calculated based on body weights recorded on each day of dose administration. Five experimental groups of monkeys were evaluated using a partial Latin square crossover design: Group 1-2 mg/kg BH4 by IV; Group 2-40 mg/kg BH4 by oral gavage; Group 3-2 mg/kg BH4 analog by IV; Group 4-5 mg/kg BH4 analog by oral gavage; Group 5-20 mg/kg BH4 analog by oral gavage. The doses of BH4 analog were prepared as mg/kg equivalents of BH4 (calculated using BH4 and BH4 analog 2HCl molecular weights). The partial Latin square crossover design was used to minimize dose sequence effect on interanimal variability for statistical purposes. The monkeys received their respective dose of BH4 intravenously (2 mL/kg, dissolved in 100 μM ascorbic acid and 5% mannitol in sterile water for injection, SWFI), Example 5 intravenously (2 mL/kg, dissolved in 100 μM ascorbic acid and 5% mannitol in citrate buffer, pH 3) or BH4 or Example 5 by oral gavage (4 mL/kg, dissolved in 100 μM ascorbic acid in SWFI). Prior to use, all intravenous dose formulations were filtered into the final dosing container using a 0.22-micron syringe filter (Millex GS or GV; Millipore).
For intravenous administration, blood (approximately 1 mL) was collected from each animal predose and at 0.083, 0.25, 0.5, 1, 2, 3, 4, 6, 8, 12, 18, and 24 hours postdose. For oral administration, blood (approximately 1 mL) was collected from each animal predose and at 0.25, 0.5, 1, 2, 3, 4, 6, 8, 12, 18, and 24 hours postdose. Blood was collected into tubes containing K2-EDTA anticoagulant, which was maintained in chilled condition, and centrifuged to obtain plasma. Centrifugation began within 30 minutes of collection. Three, 100-μL aliquots of each plasma sample were promptly transferred following centrifugation into individual tubes containing 0.1% (w/v) dithioerythritol (DTE) for storage. Once the plasma aliquot was added, each tube was vortexed briefly to mix then immediately placed on dry ice.

[6] = as above; format: in vivo, male cynomolgus monkeys; conditions: male, cynomolgus monkey, plasma; intravenous; title 5 mg/kg, text 2 mg/kg; n=6
[7] = male, cynomolgus monkey, plasma

Row | SMILES | stability in simulated gastric fluid [2] | stability in rat plasma (Stability in rat plasma) | stability in human plasma [3] | NO production (nitrite+nitrate) [1] | effect (response) relative to that of free BH4 [1] | potentiation of eNOS activity (eNOS) | also measured
1 | CCC(C)[C@H](N)C(=O)O[C@@H](C)[C@H](O)[C@H]1CNc2nc(N)[nH]c(=O)c2N1 (stereo in doubt) [Example 6, 2-Amino-3-methyl-pentanoic acid 2-(2-amino-4-oxo-3,4,5,6,7,8-hexahydro-pteridin-6-yl)-2-hydroxy-1-methyl-ethyl ester] | – | – | – | increased NO production in a dose-dependent manner | similar, if slightly reduced, effect | – | –
2 | C[C@H](O)[C@H](O)[C@H]1CNc2nc(N)[nH]c(=O)c2N1 [BH4, Tetrahydrobiopterin, reference compound] | – | – | – | – | – | did potentiate eNOS activity in a dose-dependent manner | lowering of systolic blood pressure (SBP) ([4]; SHR, 100 mg/kg/day oral gavage, after 3 weeks, vs vehicle): about 8.4 mmHg; blood pressure of SHR ([4]; previous studies, 10, 100, and 500 mg/kg/day, two weeks of oral administration): reduced the blood pressure; bioavailability ([5]; male, cynomolgus monkey, plasma, po, 40 mg/kg, based on 6R-BH4 IV, read-out: Absolute Bioavailability, BH4): 9.8%; AUC(0-inf) [5, 7]: 13.4 µM·h; AUC(0-t) [5, 7]: 11.9 µM·h; Cmax [5, 7]: 2.33 µM; Tmax [5, 7]: 3.7 h; half-life [5, 7]: 5.9 h; Absolute Bioavailability, BH4 ([5]; based on 6R-BH4 IV, 40 mg/kg): 9.2 (4.2) %; AUC(0-inf) [6]: 6.96 µM·h; AUC(0-t) [6]: 6.76 µM·h; Cmax [6]: 7.05 µM; Tmax [6]: 6.6 min
3 | CC(=O)O[C@@H]([C@H](C)OC(C)=O)[C@H]1CNc2nc(N)[nH]c(=O)c2N1C(C)=O [Example 2, Acetic acid 2-acetoxy-1-(5-acetyl-2-amino-4-oxo-3,4,5,6,7,8-hexahydro-pteridin-6-yl)-propyl ester] | high level of stability | high level of stability | high level of stability | – | – | – | –
4 | C[C@@H](O)[C@@H](O)[C@H]1CNc2nc(N)[nH]c(=O)c2N1 [Example 6S-BH4, reference compound] | – | – | – | – | – | did not significantly potentiate eNOS activity | –
5 | C[C@H](OC(=O)[C@@H](N)CCCCN)[C@H](O)[C@H]1CNc2nc(N)[nH]c(=O)c2N1 [Example 7, 2,6-Diamino-hexanoic acid 2-(2-amino-4-oxo-3,4,5,6,7,8-hexahydro-pteridin-6-yl)-2-hydroxy-1-methyl-ethyl ester tri-hydrochloride] | – | – | – | increased NO production in a dose-dependent manner | similar, if slightly reduced, effect | slight effect on eNOS activity | –
6 | C[C@H](OC(=O)[C@@H]1CCCN1)[C@H](O)[C@H]1CNc2nc(N)[nH]c(=O)c2N1 [Example 9, Pyrrolidine-2-carboxylic acid 2-(2-amino-4-oxo-3,4,5,6,7,8-hexahydro-pteridin-6-yl)-2-hydroxy-1-methyl-ethyl ester dihydrochloride] | – | – | – | increased NO production in a dose-dependent manner | similar, if slightly reduced, effect | slight effect on eNOS activity | –

Continued, in another order:

Row | stability in simulated gastric fluid [2] | stability in rat plasma (Stability in rat plasma) | stability in human plasma [3] | SMILES | NO production (nitrite+nitrate) [1] | effect (response) relative to that of free BH4 [1] | potentiation of eNOS activity (eNOS) | also measured
7 | high level of stability | high level of stability | high level of stability | C[C@H](O)[C@H](O)[C@H]1CNc2nc(N)[nH]c(=O)c2N1C(=O)OCc1ccccc1 (stereo in doubt) [Example 20, 2-Amino-6-(1,2-dihydroxy-propyl)-4-oxo-4,6,7,8-tetrahydro-1H-pteridine-5-carboxylic acid benzyl ester] | – | – | – | –
8 | high level of stability | high level of stability | high level of stability | CCC(=O)O[C@@H]([C@H](C)OC(=O)CC)[C@H]1CNc2nc(N)[nH]c(=O)c2N1C(=O)CC [Example 3, Propionic acid 1-(2-amino-4-oxo-5-propionyl-3,4,5,6,7,8-hexahydro-pteridin-6-yl)-2-Propionyloxy-propyl ester] | – | – | – | –
